Entries after “also recorded” stand apart in the source; their conditions may differ.
What was measured:
[1] = tested on: hypotensive effect of bradykinin (average arterial pressure) in Wistar rats; test: Bradykinin potentiation in vivo: hypotensive effect of bradykinin re-evaluated after TsHpt-I injection; design: species or system rat
Experimental: (§1) Wistar rats, weighting 300±20 g were used, waked or anesthetized, to assess the hypotensive properties of peptides. Bradykinin (Bachem, Co) and TsHpt-I were dissolved in sterile isotonic saline (0.9% NaCl) immediately before use.
(§2) “In vivo” experiments using waked animals: a day before the experiment, rats were anesthetized with ether and a polyethylene catheter (PE-10 connected to PE-50) was inserted into the abdominal aorta through the femoral artery for blood pressure measurements. For intravenous injections, a polyethylene cannula was implanted into the femoral vein. Arterial blood pressure and heart rate were monitored by a solid-state strain-gauge transducer. All variables were recorded continuously on a computer through a data acquisition system, Biopac®, and processed by the Acknowledge® software.
(§3) Bradykinin, 1 μg or 2 μg, was injected and the response measured as variation on average arterial pressure. Hypotensive effect of TsHpt-I (10 μg) alone was measured after Bradykinin. The hypotensive effect of bradykinin (1 μg) was then re-evaluated after 5 and 10 minutes following the injection of TsHpt-I.
“In vivo” experiments using anesthetized rats: the arterial blood pressure and heart rate were monitored continuously after insertion of catheters as described above. Rats were previously anesthetized with urethane, 1.2 mg/kg, (via i.p.).
The hypotensive effect of intravenous injections of bradykinin, 1 μg or 2 μg was measured, followed by the measurement of hypotensive effect of TsHpt-I (10 μg). The hypotensive effect of the bradykinin (1 μg) was then re-evaluated after 1, 5, 10, 15, 20 and 30 minutes.
The potentiating unit—i.e., the amount of peptide that is able to double the activity of a single dose of bradykinin—of TsHpt-I was 10 μg. At this dose TsHpt-I was able to double the activity of a single dose of bradykinin for almost 20 minutes in anesthetized animals.

[2] = tested on: arterial blood pressure of Wistar rats; test: Hypotensive activity of the peptide in biological assays on rats; type: in vivo, rat; details: native and synthetic peptide
Experimental: as §1, §2, §3
“In vivo” experiments using anesthetized rats: the arterial blood pressure and heart rate were monitored continuously after insertion of catheters as described above. Rats were previously anesthetized with urethane, […], (via i.p.). […]

In the case of “TsHpt-I (AEIDFSGIPEDIIKQIKETNAKPPA; listed as Tityus serrulatus)”, the “time for which TsHpt-I was able to double the activity of a single dose of bradykinin” value ([1]; TsHpt-I 10 μg, anesthetized animals (urethane)) is reported as roughly 20 min, the “potentiation of bradykinin effects (in words)” value ([1]; rat, in vivo) is reported as “able to potentiate bradykinin effects in a strong and long-lasting manner” and the “potentiating unit (amount of peptide that is able to double the activity of a single dose of bradykinin)” value ([1]; waked and anesthetized rats, intravenous injection, bradykinin 1 μg) is reported as 10 µg. For the same substance, the “hypotensive activity / ability to decrease blood pressure (in words)” value [2] was “strong ability to decrease blood pressure; also recorded: same hypotensive activity as the native molecule”.
